# Source: patent US20260355196A1, “INHIBITORS AND DEGRADERS OF PIP4K PROTEIN” (Larkspur Biosciences, Inc., priority 2023, published 2026)
# pIC50: −log10 of the molar value.
# Target: T1, PIP4K2C (Homo sapiens, UniProt Q8TBX8)
# T1 sequence (Q8TBX8 1-421): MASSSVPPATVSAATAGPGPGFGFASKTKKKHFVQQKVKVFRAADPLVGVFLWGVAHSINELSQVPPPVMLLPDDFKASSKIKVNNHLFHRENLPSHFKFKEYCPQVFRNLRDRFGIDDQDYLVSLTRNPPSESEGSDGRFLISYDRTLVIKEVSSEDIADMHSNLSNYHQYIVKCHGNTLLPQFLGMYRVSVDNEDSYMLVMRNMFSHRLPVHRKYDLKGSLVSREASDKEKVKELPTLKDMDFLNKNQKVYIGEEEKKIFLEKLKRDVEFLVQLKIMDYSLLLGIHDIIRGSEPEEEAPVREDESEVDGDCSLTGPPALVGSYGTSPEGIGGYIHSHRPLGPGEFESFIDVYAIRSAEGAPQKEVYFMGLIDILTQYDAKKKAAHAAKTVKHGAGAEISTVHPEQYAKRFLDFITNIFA
# Assay: Enzyme Binding Assay (KINOMEscan): active site-directed competition binding to an immobilized ligand
# Design: purchased Eurofins DiscoverX, San Diego, CA 87-0007-1094
# Conditions: 11-point dose response, duplicate, top concentration 5 micromolar; read-out: Pip4k2c Kd: IC50
# Procedure, shortened: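 Active site-directed competition binding against an immobilized ligand. 11-point dose-response in duplicate, top concentration 5 micromolar; IC50 from a Hill equation fitted by the Levenberg-Marquardt algorithm.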
row,pIC50,SMILES
1,> 6.30,"CC(=O)N[C@H]1CC[C@H](Nc2ncc(F)c(-c3cccc(-n4ccccc4=O)n3)n2)CC1 [Compound 626, trans-N-(4-((5-fluoro-4-(2-oxo-2H-[1,2′-bipyridin]-6′-yl)pyrimidin-2-yl)amino)cyclohexyl)acetamide]"
2,> 6.30,"CC(=O)N1CCC(Nc2ncc(F)c(-c3ccnc(N4CCOCC4=O)c3)n2)CC1 [Compound 628, 4-(4-(2-((1-acetylpiperidin-4-yl)amino)-5-fluoropyrimidin-4-yl)pyridin-2-yl)morpholin-3-one]"
3,> 6.30,"CC(=O)N1CCC(Nc2ncc(F)c(-c3cccc(N4CCOCC4=O)n3)n2)CC1 [Compound 630, 4-(6-(2-((1-acetylpiperidin-4-yl)amino)-5-fluoropyrimidin-4-yl)pyridin-2-yl)morpholin-3-one]"
4,> 6.30,"CC(=O)N[C@H]1CC[C@H](Nc2ncc(F)c(-c3cccc(C4CCC(=O)NC4)c3)n2)CC1 (stereo partly drawn) [Compound 631, N-(trans-4-((5-fluoro-4-(3-(6-oxopiperidin-3-yl)phenyl)pyrimidin-2-yl)amino)cyclohexyl)acetamide]"
